# Measurements published in US7528138B2, “Pyrazolo[1,5-a]pyrimidines useful as inhibitors of protein kinases” (Vertex Pharmaceuticals Incorporated, priority 2004, dated 2009).
# How the values were obtained:
# Assay type in all cases: biochemical
# Itk = biological target: T1, Itk (Homo sapiens, UniProt Q08881); assay: ITK Inhibition Assay (Radiometric), radioactive-phosphate incorporation; conditions: enzyme inhibition data (Ki), Table 11; radiometric or UV assay not stated
# T1 sequence (Q08881 1-620): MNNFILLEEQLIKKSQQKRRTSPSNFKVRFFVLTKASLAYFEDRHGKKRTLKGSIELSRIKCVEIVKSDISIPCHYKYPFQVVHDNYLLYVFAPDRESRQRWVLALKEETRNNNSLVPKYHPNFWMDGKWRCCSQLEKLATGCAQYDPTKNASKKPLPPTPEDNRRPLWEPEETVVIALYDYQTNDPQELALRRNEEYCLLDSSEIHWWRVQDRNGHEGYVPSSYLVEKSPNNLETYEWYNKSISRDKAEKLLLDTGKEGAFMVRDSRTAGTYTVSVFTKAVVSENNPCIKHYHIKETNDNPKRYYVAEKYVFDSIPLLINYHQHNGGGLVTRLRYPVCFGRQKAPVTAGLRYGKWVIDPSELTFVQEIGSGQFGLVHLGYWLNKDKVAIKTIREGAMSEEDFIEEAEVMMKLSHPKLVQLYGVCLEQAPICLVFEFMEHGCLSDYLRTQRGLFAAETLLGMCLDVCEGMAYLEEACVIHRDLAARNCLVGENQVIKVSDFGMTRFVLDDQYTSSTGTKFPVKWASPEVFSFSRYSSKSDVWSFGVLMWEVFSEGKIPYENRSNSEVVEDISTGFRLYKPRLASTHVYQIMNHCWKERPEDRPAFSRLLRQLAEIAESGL
# Method in brief: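 Radiometric 33P incorporation into SAM68 peptide (D332-443) with filter capture and scintillation counting; 10 min pre-incubation then 10 min reaction at 25° C. IC50 format: 30 nM Itk, 15 μM ATP, 2 μM peptide, HEPES pH 7.5. Ki(app) format: 50 nM Itk, 7.5 μM ATP, 3 μM peptide, MOPS pH 7.0.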
# JAK3 = biological target: T2, JAK3 (Homo sapiens, UniProt P52333); assay: JAK3 Inhibition Assay, 33P incorporation; conditions: enzyme inhibition data (Ki), Table 11
# T2 sequence (P52333 1-1124): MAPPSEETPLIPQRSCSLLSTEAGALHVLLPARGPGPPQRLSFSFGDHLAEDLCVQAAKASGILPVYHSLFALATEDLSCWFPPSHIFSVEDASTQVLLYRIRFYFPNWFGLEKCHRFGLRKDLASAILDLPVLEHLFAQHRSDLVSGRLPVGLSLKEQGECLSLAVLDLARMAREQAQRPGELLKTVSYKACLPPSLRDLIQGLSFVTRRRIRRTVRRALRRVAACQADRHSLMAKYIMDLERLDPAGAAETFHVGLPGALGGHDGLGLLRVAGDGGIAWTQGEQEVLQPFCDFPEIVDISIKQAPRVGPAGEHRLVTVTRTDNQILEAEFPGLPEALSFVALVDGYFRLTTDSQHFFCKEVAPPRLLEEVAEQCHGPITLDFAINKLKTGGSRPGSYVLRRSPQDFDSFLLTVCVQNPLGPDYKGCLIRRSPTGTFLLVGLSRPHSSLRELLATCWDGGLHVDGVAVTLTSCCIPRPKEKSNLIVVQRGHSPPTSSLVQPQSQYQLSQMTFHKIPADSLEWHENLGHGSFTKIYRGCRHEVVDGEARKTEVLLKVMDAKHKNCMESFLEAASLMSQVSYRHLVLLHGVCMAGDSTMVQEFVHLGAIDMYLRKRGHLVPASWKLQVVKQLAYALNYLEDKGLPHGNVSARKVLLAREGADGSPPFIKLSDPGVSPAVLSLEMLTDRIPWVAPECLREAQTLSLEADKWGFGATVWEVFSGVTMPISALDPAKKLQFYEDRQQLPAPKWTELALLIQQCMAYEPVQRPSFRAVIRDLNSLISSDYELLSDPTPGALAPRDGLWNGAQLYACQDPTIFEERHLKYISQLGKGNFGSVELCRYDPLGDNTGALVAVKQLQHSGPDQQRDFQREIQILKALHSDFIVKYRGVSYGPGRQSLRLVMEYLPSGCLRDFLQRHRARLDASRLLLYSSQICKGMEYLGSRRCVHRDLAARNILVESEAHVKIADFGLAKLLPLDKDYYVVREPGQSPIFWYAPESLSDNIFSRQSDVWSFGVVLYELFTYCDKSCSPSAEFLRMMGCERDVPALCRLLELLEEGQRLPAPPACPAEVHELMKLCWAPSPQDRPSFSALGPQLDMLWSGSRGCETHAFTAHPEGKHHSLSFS
# Method in brief: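 33P incorporation into 1 μM poly(Glu)4Tyr was counted after TCA stop and glass fiber filtration. The 20 min reaction ran at 25 °C with 1 nM JAK3 and 5 μM ATP (200 uCi/μmole). Buffer was 100 mM HEPES pH 7.4, 10 mM MgCl2, 25 mM NaCl, 1 mM DTT, 0.01% BSA.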
# c-Met = c-Met (Homo sapiens, UniProt P08581); assay: c-Met Inhibition Assay, coupled enzyme system; conditions: enzyme inhibition data (Ki), Table 11
# Method in brief: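 Pyruvate kinase/lactate dehydrogenase-coupled NADH assay in HEPES pH 7.5 with 80 nM c-Met, 200 μM ATP and 10 μM polyGluTyr at 30° C. Compound (0.006–12.5 μM final, 12-point) preincubated 10 min before ATP start; rates over 10 min gave Ki.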
# c-Met, sequence (P08581 25-1390): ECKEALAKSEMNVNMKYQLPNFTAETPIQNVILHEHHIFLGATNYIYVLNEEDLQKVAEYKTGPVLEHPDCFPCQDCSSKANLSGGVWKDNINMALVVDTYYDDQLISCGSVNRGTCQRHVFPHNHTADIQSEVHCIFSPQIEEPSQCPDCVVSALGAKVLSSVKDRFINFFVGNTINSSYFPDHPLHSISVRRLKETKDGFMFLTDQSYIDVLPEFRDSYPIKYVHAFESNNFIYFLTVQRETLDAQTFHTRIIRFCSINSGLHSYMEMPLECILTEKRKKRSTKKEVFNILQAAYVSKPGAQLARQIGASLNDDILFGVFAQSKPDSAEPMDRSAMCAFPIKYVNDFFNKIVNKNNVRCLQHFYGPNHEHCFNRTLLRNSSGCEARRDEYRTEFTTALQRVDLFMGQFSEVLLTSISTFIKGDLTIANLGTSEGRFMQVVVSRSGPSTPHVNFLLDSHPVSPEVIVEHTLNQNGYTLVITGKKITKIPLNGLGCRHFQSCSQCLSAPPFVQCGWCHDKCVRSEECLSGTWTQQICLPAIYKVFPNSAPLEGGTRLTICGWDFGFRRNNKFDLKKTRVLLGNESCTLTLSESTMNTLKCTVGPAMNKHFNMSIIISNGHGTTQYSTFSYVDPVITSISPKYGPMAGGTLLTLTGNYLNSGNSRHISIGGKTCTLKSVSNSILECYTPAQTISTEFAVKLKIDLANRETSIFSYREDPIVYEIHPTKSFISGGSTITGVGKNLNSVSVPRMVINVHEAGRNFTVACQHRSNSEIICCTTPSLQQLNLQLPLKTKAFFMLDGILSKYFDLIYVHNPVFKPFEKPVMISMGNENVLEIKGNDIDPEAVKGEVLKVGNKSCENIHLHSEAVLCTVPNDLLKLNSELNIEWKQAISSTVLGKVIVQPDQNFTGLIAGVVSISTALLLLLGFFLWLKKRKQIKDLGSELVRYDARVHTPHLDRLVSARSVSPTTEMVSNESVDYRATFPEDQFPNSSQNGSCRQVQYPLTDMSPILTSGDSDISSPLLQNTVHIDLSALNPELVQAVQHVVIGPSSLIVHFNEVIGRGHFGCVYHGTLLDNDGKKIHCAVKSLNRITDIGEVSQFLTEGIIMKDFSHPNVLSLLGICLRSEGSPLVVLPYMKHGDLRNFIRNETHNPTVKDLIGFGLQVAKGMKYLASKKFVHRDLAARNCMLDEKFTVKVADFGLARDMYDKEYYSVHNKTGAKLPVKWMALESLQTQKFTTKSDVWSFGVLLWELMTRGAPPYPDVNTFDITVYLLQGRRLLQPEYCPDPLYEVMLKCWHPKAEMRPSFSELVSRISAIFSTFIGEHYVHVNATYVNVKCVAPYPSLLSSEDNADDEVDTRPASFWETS
Ki (Itk) [µM],Ki (JAK3) [µM],Ki (c-Met) [µM],Structure (SMILES)
0.5 to 5,> 5,0.5 to 5,CCOC(=O)C1CCN(c2cc(-c3cnc4c(-c5ccccn5)c(N)nn4c3)ccn2)CC1 [Compound V-253]
0.5 to 5,> 5,0.5 to 5,CN1CCCN(c2cc(-c3cnc4c(-c5ccccn5)c(N)nn4c3)ccn2)CC1 [Compound V-254]
0.5 to 5,> 5,0.5 to 5,Nc1nn2cc(-c3ccnc(N4CCN(c5cnccn5)CC4)c3)cnc2c1-c1ccccn1 [Compound V-255]
0.5 to 5,> 5,0.5 to 5,Nc1nn2cc(-c3ccnc(N4CCC(N5CCCC5)CC4)c3)cnc2c1-c1ccccn1 [Compound V-256]
0.5 to 5,> 5,0.5 to 5,Nc1nn2cc(-c3cccnc3N3CCOCC3)cnc2c1-c1ccccn1 [Compound V-257]
0.5 to 5,> 5,0.5 to 5,Nc1nn2cc(-c3cccnc3N3CCCC3)cnc2c1-c1ccccn1 [Compound V-258]
0.5 to 5,> 5,0.5 to 5,Nc1nn2cc(-c3cccnc3N3CCCCC3)cnc2c1-c1ccccn1 [Compound V-259]
0.5 to 5,> 5,0.5 to 5,COC(=O)C1CCN(c2ncccc2-c2cnc3c(-c4ccccn4)c(N)nn3c2)CC1 [Compound V-260]
0.5 to 5,> 5,0.5 to 5,Nc1nn2cc(-c3cccnc3N3CC[C@H](CN4CCCC4)C3)cnc2c1-c1ccccn1 [Compound V-261]
0.5 to 5,> 5,0.5 to 5,Nc1nn2cc(-c3cccnc3N3CCC[C@H]3CO)cnc2c1-c1ccccn1 [Compound V-262]
0.5 to 5,> 5,0.5 to 5,CCN(Cc1ccccn1)c1ncccc1-c1cnc2c(-c3ccccn3)c(N)nn2c1 [Compound V-263]
0.5 to 5,> 5,0.5 to 5,Nc1nn2cc(-c3cccnc3N3CCN(Cc4ccncc4)CC3)cnc2c1-c1ccccn1 [Compound V-264]
0.5 to 5,> 5,0.5 to 5,Nc1nn2cc(-c3cccnc3N3CCC(N4CCCC4)CC3)cnc2c1-c1ccccn1 [Compound V-265]
0.5 to 5,> 5,0.5 to 5,Nc1nn2cc(-c3cccnc3N3CCN(CCO)CC3)cnc2c1-c1ccccn1 [Compound V-266]
0.5 to 5,> 5,0.5 to 5,CN1CCCN(c2ncccc2-c2cnc3c(-c4ccccn4)c(N)nn3c2)CC1 [Compound V-267]
0.5 to 5,> 5,0.5 to 5,CN1CCN(c2ncccc2-c2cnc3c(-c4ccccn4)c(N)nn3c2)CC1 [Compound V-268]
0.5 to 5,> 5,0.5 to 5,CC(=O)N1CCN(c2ncccc2-c2cnc3c(-c4ccccn4)c(N)nn3c2)CC1 [Compound V-269]
0.5 to 5,> 5,0.5 to 5,Nc1nn2cc(-c3cccnc3N3CCCC(CO)C3)cnc2c1-c1ccccn1 (stereo not drawn) [Compound V-270]
0.5 to 5,> 5,0.5 to 5,Nc1nn2cc(-c3cccnc3N3CCC(CCO)CC3)cnc2c1-c1ccccn1 [Compound V-271]
0.5 to 5,> 5,0.5 to 5,Nc1nn2cc(N3CCC[C@@H]3CN3CCCC3)cnc2c1-c1ccccn1 [Compound V-272]
0.5 to 5,> 5,0.5 to 5,Cc1cnc2c(-c3cc(NCc4cc(Cl)ccc4Cl)ncn3)c(N)nn2c1 [Compound V-275]
0.5 to 5,0.5 to 5,< 0.5,CCC(C)Nc1cc(-c2c(N)nn3cc(C)cnc23)ncn1 (stereo not drawn) [Compound V-282]
0.5 to 5,0.5 to 5,0.5 to 5,Cc1cnc2c(-c3cc(NC(C)CO)ncn3)c(N)nn2c1 (stereo not drawn) [Compound V-283]
0.5 to 5,0.5 to 5,< 0.5,Cc1cnc2c(-c3cc(NC4CCN(C)CC4)ncn3)c(N)nn2c1 [Compound V-284]

# Further lines, the compound ahead of its results:
Structure (SMILES),Ki (Itk) [µM],Ki (JAK3) [µM],Ki (c-Met) [µM]
CC(C)CNC(=O)c1cnc2c(-c3ccccn3)c(N)nn2c1 [Compound V-205],0.5 to 5,> 5,0.5 to 5
Nc1nn2cc(C(=O)NCc3ccccc3)cnc2c1-c1ccccn1 [Compound V-207],0.5 to 5,> 5,0.5 to 5
Nc1nn2cc(/C=C/c3ccccc3)cnc2c1-c1ccccn1 [Compound V-209],< 0.5,> 5,0.5 to 5
CN(C)CCN(C)C(=O)c1ccc(-c2cnc3c(Cc4ccccc4)c(N)nn3c2)nc1 [Compound V-211],0.5 to 5,> 5,0.5 to 5
Nc1nn2cc(CCc3ccccc3)cnc2c1-c1ccccn1 [Compound V-213],0.5 to 5,> 5,0.5 to 5
Nc1nn2cc(NC(=O)c3ccccc3)cnc2c1-c1ccccn1 [Compound V-235],0.5 to 5,> 5,0.5 to 5
COc1ccc(-c2cnc3c([N+](=O)[O-])c(N)nn3c2)cc1 [Compound V-239],0.5 to 5,> 5,0.5 to 5
COc1ccc(-c2cnc3c(N)c(N)nn3c2)cc1 [Compound V-240],0.5 to 5,> 5,0.5 to 5
COCCNc1cc(-c2cnc3c(-c4ccccn4)c(N)nn3c2)ccn1 [Compound V-245],0.5 to 5,> 5,< 0.5
CN(C)CCNc1cc(-c2cnc3c(-c4ccccn4)c(N)nn3c2)ccn1 [Compound V-246],0.5 to 5,> 5,< 0.5
Nc1nn2cc(-c3ccnc(N4CCN(Cc5ccccc5)CC4)c3)cnc2c1-c1ccccn1 [Compound V-247],0.5 to 5,> 5,< 0.5
Nc1nn2cc(-c3ccnc(N4CCN(CCO)CC4)c3)cnc2c1-c1ccccn1 [Compound V-248],0.5 to 5,0.5 to 5,< 0.5
Nc1nn2cc(-c3ccnc(N4CCN(CCOCCO)CC4)c3)cnc2c1-c1ccccn1 [Compound V-249],0.5 to 5,0.5 to 5,< 0.5
Nc1nn2cc(-c3ccnc(NCCCC4=NCC=N4)c3)cnc2c1-c1ccccn1 [Compound V-250],< 0.5,0.5 to 5,< 0.5
Nc1nn2cc(-c3ccnc(N4CCC[C@@H]4CO)c3)cnc2c1-c1ccccn1 [Compound V-251],0.5 to 5,> 5,< 0.5
CN(Cc1cccnc1)c1cc(-c2cnc3c(-c4ccccn4)c(N)nn3c2)ccn1 [Compound V-252],0.5 to 5,> 5,0.5 to 5
